{"source": "patent US20190185896A1", "about": "“Stimulation of Regenerative Processes and Factors by Noble Gases” (NOBILIS THERAPEUTICS, INC., priority 2017, published 2019)", "key": {"[1]": {"system": "VEGF expression in fibroblasts", "experiment": "VEGF expression in fibroblasts in vitro (immunofluorescence staining, western blotting)", "format": "cell-based", "details": "75% Argon+25% O2, 24 h after treatment"}, "[2]": {"system": "a SMA expression in fibroblasts", "experiment": "a-SMA expression in fibroblasts in vitro (immunofluorescence staining, western blotting)", "format": "cell-based", "details": "75% Argon+25% O2, 10 ng/ml TGF, 72 h after treatment", "method": "For in vitro fluorescence staining, cells were fixed in paraformaldehyde in 0.1 mol/l PBS solution. Cells were then incubated in 10% normal donkey serum in 0.1 mol/l PBS-Tween 20 and then incubated overnight with rabbit anti-angiopoietin-1 (1:200, Abcam), rabbit anti-TGF-β (1:200, Abcam), rabbit α-SMA (1:200, Abcam), followed by incubation with secondary antibody for 1 h. The slides were counterstained with nuclear dye DAPI and mounted with VECTASHIELD Mounting Medium (Vector Laboratories, Burlingame, Calif.). Sections were examined using an Olympus (Watford, UK) BX4 microscope.\nHUVEC cell sample was stored in a −80° C. freezer until use. Cell samples were homogenized in ice-cold cell lysis buffer (20 mM Tris pH 7.5, 1% Triton X-100, 150 mM sodium chloride, 1% pyrophosphate, 1% betaglycophosphate, 1% NP-40, 0.1% SDS, 1 mM EDTA, 100 μg/ml phenylmethylsulfonyl fluoride, 1 μg/ml aprotinin). All homogenates were then centrifuged for 20 minutes at 15,000 rpm at 4° C. The supernatants were then extracted and protein quantification was carried out using a Bradford protein quantification assay kit (Bio-Rad, Hemel Hempstead, UK). […]\nMembranes were then blocked in 5% non-fat powdered milk in TBST (50 mM Tris-HCl, 150 mM sodium chloride, 0.1% Tween 20, pH 7.4). […] Protein bands were then analyzed by densitometric quantification with Adobe PhotoShop (Adobe Systems, California, USA). […]"}, "Angiopoietin 1": {"system": "Angiopoietin 1", "experiment": "Angiopoietin 1 staining of adult mouse cutaneous wounds", "format": "in vivo", "details": "mouse cutaneous wounds, 3, 5, 8 day after wound, versus 75% N2", "description": "(§1) To create the excisional wounds, adult mice were anesthetized and the dorsal skin was shaved, after sanitizing with 70% ethanol, 4 full-thickness excisional wounds were generated with a 4-mm sterile punch (stiefel laboratories, Research Triangel Park, N.C.). On the dorsal skin using 4-mm-diameter dermal biopsy punches through the two layers of skin (Miltex Inc.).\n(§2) The perfusion fixed skin tissue was cryosectioned (thickness 30 μm) and mounted on Superfrost Plus glass slides for the process of immunostaining analysis. The sections were initially incubated by a solution of 0.3% hydrogen peroxide in methanol to quench endogenous peroxidase before being exposed to a blocking solution of 0.1M phosphate buffered saline (PBS) containing 0.3% Triton X-100 and 3% natural sheep serum (NSS). Following this process of blocking the sections were incubated overnight at […] with rat polyclonal angiopoietin 1, VEGF, CD34, TGF-β (Abcam, UK). […]\n(§3) (A) Angiopoietin 1 staining of adult mouse cutaneous wounds. […] Right lane: the intensity of Angiopoietin 1 was quantified by densitometry and normalized by 75% N2 at 3 day (mean±S.D, n=10), * p<0.05. […] The intensity of VEGF was quantified by densitometry and normalized by 75% N2 at 3 day (mean±S.D, n=10), * p<0.05."}, "VEGF": {"system": "VEGF", "experiment": "VEGF staining of adult mouse cutaneous wounds", "format": "in vivo", "details": "mouse cutaneous wounds, 3, 5, 8 day after wound, versus 75% N2", "description": "as §1, §2, §3"}, "CD34": {"system": "CD34", "experiment": "Anti-CD34 immunohistochemistry of skin wound samples (new vessels in the wound area)", "format": "in vivo, mice", "details": "mouse skin wound samples, versus Nitrogen", "description": "as §1, §2\n(§4) (A) Immunohistochemical analyses using anti-CD34 in skin wound samples from the mice treated with Nitrogen and Argon. […] The numbers of new vessels per a high-power microscopic field (×100) in 10 fields/a slide was counted. […] The intensity of TGFβ was quantified by densitometry and normalized by 75% N2 at 3 day (mean±S.D, n=10), * p<0.05."}, "TGF-β": {"system": "TGF-β", "experiment": "TGFβ staining of adult mouse cutaneous wounds", "format": "in vivo", "details": "mouse cutaneous wounds, 3, 5, 8 day after wound, versus 75% N2", "description": "as §1, §2, §4"}, "skin wound": {"system": "skin wound", "experiment": "Skin wound healing in mice (excisional wounds)", "format": "in vivo", "details": "75% Argon versus 75% nitrogen", "description": "as §1\nA Macroscopic changes in skin wound site in a mice treated with 75% nitrogen or Argon. Day 0 picture was taken immediately after injury. Representative images from 2 individual animals in both groups are shown."}, "HUVECs": {"system": "HUVECs", "experiment": "Cell migration scratch assay", "format": "cell-based", "details": "75% argon for 2 hours, 16 hours post-exposure", "method": "The following was adopted from a previous published protocol (Liang et al., 2007) to study the influence of argon on migration of HUVECs. Prior to assay, HUVECs in EGM were re-suspended in incomplete LSGS medium and seeded onto pre-coated 12-well plates at a density of 2-3×10^5/well. The plates were incubated at 37° C. with 5% CO2 overnight for the cells to adhere to the gelatin surface as well as to create a confluent monolayer. Use of low serum condition is crucial as it ensures survival and attachment of cells while minimising their proliferation.\nOnce 100% confluence was reached, the monolayers were scraped using a sterile p1000 pipette tip along the middle to create a straight-line “scratch”. After cell debris was washed off, the wells were replenished with fresh incomplete-LSGS medium.\nThe plates were then exposed to normal air, 75% argon or 75% nitrogen for 2 hours. From 0 to 16 hours post-exposure, wells were examined every 4 hours. […] The cells were then fixed with 4% paraformaldehyde (Fischer, UK) for 8 minutes and stained with 0.1% crystal violet (Sigma-Aldrich, UK) for 10 minutes. Images were taken as described in the previous section."}, "[3]": {"system": "cerebral cortical neurons", "details": "75% concentration, in vitro, regardless of presence or absence of OGD injury; cited from earlier work"}}, "data": [{"smiles": "[Ar]", "note": "[Argon, argon]", "values": [{"measurement": "VEGF expression in vitro", "setting": "[1]", "value": "enhanced"}, {"measurement": "a-SMA expression in vitro", "setting": "[2]", "value": "enhanced"}, {"measurement": "Angiopoietin 1 expression in vivo", "setting": "Angiopoietin 1", "value": "enhanced"}, {"measurement": "VEGF expression in vivo", "setting": "VEGF", "value": "enhanced"}, {"measurement": "CD34 in vivo (new vessels in the wound area)", "setting": "CD34", "value": "enhanced"}, {"measurement": "TGF-β in vivo", "setting": "TGF-β", "value": "enhanced"}, {"measurement": "Skin wound healing", "setting": "skin wound", "value": "accelerated"}, {"measurement": "Scratch closure by migrating cells", "setting": "HUVECs", "value": "completely closed"}, {"measurement": "Viability and proliferation of cerebral cortical neurons", "setting": "[3]", "value": "potently enhanced"}]}]}
